Literature values in patent US20090023784A1, “USE OF DEFERIPRONE AND METHODS TO TREAT AND/OR PREVENT FRIEDREICH ATAXIA RESULTING FROM INTRACELLULAR MISHANDLING OF IRON” (priority 2006, published 2009).

System: intracellular iron pools of macrophages, hepatocytes, and cardiomyocyte cell lines
Settings: living cells, fluorescence probes; cited from earlier work

## CC(=O)N(O)CCCCCNC(=O)CCC(=O)N(O)CCCCCNC(=O)CCC(=O)N(O)CCCCCN [desferrioxamine]
  access to intracellular iron pools / chelation: slow
